Experimental data as given in ChEMBL document CHEMBL1146934, “Polyhydroxylated 4-thiaflavans as multipotent antioxidants: protective effect on oxidative DNA damage in vitro” (Bioorg Med Chem Lett, 2006).
Activity calls are given as the source filed them. The calls are words filed in the database; no cut-off is given here.

What was measured:
[1] = test system: Radical scavenging activity; test: Effect on CumOOH-induced oxidative damage of herring sperm DNA assessed as reduction in 8-OHdG level; format: functional; set-up: scale not given: the % may be the effect or the level left; settings: Clupea
[2] = test system: Radical scavenging activity; test: Effect on glutathione/ferric ion-induced oxidative damage of herring sperm DNA assessed as reduction in 8-OHdG level; format: functional; set-up: scale not given: the % may be the effect or the level left; settings: Clupea

Row | Molecule | Activity [1] | Activity [2]
1 | Oc1cc(O)c2c(c1)OC(c1ccc(O)c(O)c1)CS2 (configuration not stated) | 30% | 82%
2 | COc1ccc(C2CSc3c(O)cc(O)cc3O2)cc1 (configuration not stated) | inactive | Active
3 | Oc1cc(O)c2c(c1)OC(c1ccc(O)c(O)c1)C(O)C2 (racemic) | 32% | 36%
4 | VITAMIN E | 61% | 33%
5 | COc1ccc(C2CSc3ccc(O)cc3O2)cc1 (configuration not stated) | inactive | Active
6 | COc1ccc(C2CSc3cc(O)ccc3O2)cc1 (configuration not stated) | inactive | –
7 | COc1cc(OC)c2c(c1)OC(c1ccc(O)c(O)c1)CS2 (configuration not stated) | 30% | –
